The values below come from patent US12209071B2, “Triazine derivatives for treating diseases relating to neurotrophins” (AlzeCure Pharma AB, priority 2018, dated 2025).

The target of one test is T1, TrkA (Homo sapiens, UniProt P04629).
T1 construct: expressed in transfected cells; host or cells: U2OS
The experiment in a line: Enzyme Fragment Complementation cell-based assay, TrkA. Particulars: U2OS-cells over-expressing TrkA; ligand 10 ng/mL; 3 hours incubation. In short, it runs like this: (§1)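 U2OS cells overexpressing TrkA, TrkB, TrkC or FGFR1, with receptor and SHC1 fused to complementary beta-galactosidase fragments. Compound pre-mixed with cognate ligand (NGF, BDNF, NT-3 or bFGF; 10 ng/mL final), 3 h at room temperature. Beta-galactosidase substrate with detergent added for 60 min; luminescence read.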

For a further test, the target named is T2, TrkB (Homo sapiens, UniProt Q16620).
T2 construct: expressed in transfected cells; host or cells: U2OS
T2 sequence (Q16620 32-822): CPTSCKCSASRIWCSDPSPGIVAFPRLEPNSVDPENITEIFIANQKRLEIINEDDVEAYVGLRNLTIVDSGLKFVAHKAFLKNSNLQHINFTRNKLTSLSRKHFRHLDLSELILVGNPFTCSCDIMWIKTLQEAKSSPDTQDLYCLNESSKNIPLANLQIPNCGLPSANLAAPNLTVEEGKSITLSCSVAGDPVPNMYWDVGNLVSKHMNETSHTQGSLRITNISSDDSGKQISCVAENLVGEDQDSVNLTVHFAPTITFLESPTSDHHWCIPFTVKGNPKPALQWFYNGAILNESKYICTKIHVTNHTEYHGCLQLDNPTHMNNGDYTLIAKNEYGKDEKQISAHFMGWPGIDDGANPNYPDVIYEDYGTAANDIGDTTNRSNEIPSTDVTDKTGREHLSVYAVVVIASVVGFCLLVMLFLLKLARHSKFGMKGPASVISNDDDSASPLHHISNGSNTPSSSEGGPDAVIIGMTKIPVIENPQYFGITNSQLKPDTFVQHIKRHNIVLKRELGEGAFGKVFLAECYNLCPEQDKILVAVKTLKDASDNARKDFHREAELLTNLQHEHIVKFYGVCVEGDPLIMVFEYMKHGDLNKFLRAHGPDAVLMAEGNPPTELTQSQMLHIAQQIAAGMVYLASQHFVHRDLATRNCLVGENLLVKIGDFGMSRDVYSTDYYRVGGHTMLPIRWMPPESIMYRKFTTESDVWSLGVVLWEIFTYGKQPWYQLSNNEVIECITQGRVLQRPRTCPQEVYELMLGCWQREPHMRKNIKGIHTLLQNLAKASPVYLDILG
In words: Enzyme Fragment Complementation cell-based assay, TrkB. The following applies: U2OS-cells over-expressing TrkB; ligand 10 ng/mL; 3 hours incubation. In short, it runs like this:
as §1

The next test has as its target T3, FGFR1 (Homo sapiens, UniProt P11362).
T3 construct: expressed in transfected cells; host or cells: U2OS (cryopreserved)
The experiment in a line: Enzyme Fragment Complementation cell-based assay, FGFR1. The following applies: cryopreserved U2OS-cells expressing FGFR1; ligand 10 ng/mL; 3 hours incubation. From the text:
(§2) A high throughput cell-based screen has been used to identify positive modulators of TrkA, TrkB and TrkC. The screen involves the use of cell-based assay overexpressing TrkA, TrkB or TrkC. The purpose of the assay is to identify compounds that modulate neurotrophin signalling (Forsell et al 2012). The assay can be used in inhibitor mode using a high concentration of ligand, in modulator mode using an intermediate concentration and in agonist mode using a low concentration of ligand.
(§3) The assay uses Enzyme Fragment Complementation (EFC) technique, which is a proximity-based assay. Briefly, cells used in this assay over-express two fusion proteins, i.e. the receptor, which can be either one of TrkA, TrkB, TrkC, IGF1R or FGFR1, fused to a small peptide of beta-galactosidase and an adaptor protein, i.e. SHC1 (or any other Trk-adaptor protein) fused to the major part of beta-galactosidase. […] The proximity between the small activating peptide on the receptor and the major part of beta-galactosidase on the adaptor protein leads to an active beta-galactosidase enzyme. The activation of the receptor is quantified by measuring the amount of active beta-galactosidase by its conversion of a non-luminescent substrate into a luminescent product.
(§4) U2OS-cells, over-expressing TrkA or TrkB or TrkC, are plated in 96- or 384-well plates and incubated overnight. Alternatively, cryopreserved HEK293-cells expressing IGFR1 or cryopreserved U2OS-cells expressing FGFR1 were plated in 96- or 384-well plates. On the following day, test compound was pre-mixed with ligand (NGF, BDNF, NT-3, IGF-1 or basic fibroblast growth factor (bFGF(FGF-2))) and the ligand-compound mixture is then added to the cells to yield a final ligand concentration of 10 ng/mL. After 3 hours of incubation at room temperature, the incubation is stopped by the addition of a beta-galactosidase substrate mixture containing detergents. The substrate mixture is incubated for 60 minutes at ambient temperature. The luminescence is thereafter read by the use of a plate reader.

The target in another test is T4, IGF1R (Homo sapiens, UniProt P08069).
T4 construct: expressed in transfected cells; host or cells: HEK293 (cryopreserved)
T4 sequence (P08069 31-736 limits assumed): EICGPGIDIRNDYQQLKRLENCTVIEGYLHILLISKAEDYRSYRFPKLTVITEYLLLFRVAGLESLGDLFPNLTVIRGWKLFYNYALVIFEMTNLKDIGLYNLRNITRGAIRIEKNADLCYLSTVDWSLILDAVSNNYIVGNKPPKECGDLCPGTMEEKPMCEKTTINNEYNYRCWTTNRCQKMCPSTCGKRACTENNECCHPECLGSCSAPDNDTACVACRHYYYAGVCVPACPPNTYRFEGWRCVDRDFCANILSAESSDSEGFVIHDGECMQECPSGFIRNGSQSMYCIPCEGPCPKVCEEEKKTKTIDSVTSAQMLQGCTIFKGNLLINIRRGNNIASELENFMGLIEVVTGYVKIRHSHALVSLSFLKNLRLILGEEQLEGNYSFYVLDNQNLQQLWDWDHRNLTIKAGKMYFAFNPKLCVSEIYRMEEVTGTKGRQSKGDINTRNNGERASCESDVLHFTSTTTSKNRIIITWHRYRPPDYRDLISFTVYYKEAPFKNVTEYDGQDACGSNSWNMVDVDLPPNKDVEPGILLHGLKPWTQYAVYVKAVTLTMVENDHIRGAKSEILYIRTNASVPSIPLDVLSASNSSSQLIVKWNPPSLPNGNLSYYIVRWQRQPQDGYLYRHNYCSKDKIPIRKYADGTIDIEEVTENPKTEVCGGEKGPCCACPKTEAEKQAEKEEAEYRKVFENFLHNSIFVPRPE
T4 sequence (P08069 741-1367 limits assumed): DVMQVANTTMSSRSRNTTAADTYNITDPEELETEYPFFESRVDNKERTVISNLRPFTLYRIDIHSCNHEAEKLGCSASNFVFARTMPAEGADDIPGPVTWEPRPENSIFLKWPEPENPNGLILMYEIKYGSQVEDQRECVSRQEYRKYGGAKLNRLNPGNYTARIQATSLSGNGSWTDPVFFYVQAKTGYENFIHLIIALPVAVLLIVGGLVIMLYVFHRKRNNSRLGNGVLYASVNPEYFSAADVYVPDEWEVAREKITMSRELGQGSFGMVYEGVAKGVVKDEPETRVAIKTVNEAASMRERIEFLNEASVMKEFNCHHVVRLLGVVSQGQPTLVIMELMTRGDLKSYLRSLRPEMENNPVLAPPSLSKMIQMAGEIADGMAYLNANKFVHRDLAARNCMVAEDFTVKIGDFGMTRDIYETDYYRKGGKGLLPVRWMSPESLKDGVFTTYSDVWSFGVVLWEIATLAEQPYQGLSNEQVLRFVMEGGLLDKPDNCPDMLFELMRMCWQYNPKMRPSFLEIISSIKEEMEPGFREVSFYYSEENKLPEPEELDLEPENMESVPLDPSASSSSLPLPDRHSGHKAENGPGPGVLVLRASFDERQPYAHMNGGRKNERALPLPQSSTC
The experiment in a line: Enzyme Fragment Complementation cell-based assay, IGF1R. Particulars: cryopreserved HEK293-cells expressing IGFR1; ligand 10 ng/mL; 3 hours incubation.
Source text: as §2, §3, §4

Test [1] relates to mice treated with scopolamine. The experiment in a line: Passive avoidance task. The test is classed as in vivo. Particulars: C57/Bl6 mice; s.c. once per day for 4 days prior to PA training; scopolamine 0.3 mg/kg s.c. 30 min prior to training; FIG. 1. As for the experimental part: Passive avoidance (PA) is an aversive learning task based on classical (Pavlovian) fear conditioning that allows for analysis of both facilitation and impairment of memory function by adjusting the unconditioned stimulus, i.e. the electrical foot shock. Commonly a cognitive-impairing agent is administered to the animals to mimic the neurochemical disturbances present in various cognitive disorders e.g. cholinergic (scopolamine) and glutamatergic (MK-801) deficits.
Prior to testing, the animals are brought to the experimental room where they are allowed to habituate for 60 min. The test is conducted using a modified shuttle box with two communicating compartments of equal size with a small sliding door built into the separating wall and a stainless-steel bar floor. One of the compartments is not illuminated and thus black whereas the other compartment (the light one) is illuminated by an electric bulb, installed on the top of a plexiglass cover. The PA training is conducted in a single session. […] Latency to cross over into the dark compartment (training latency) is recorded. […] The latency to cross over into the dark compartment with all four feet is measured (retention latency) as well as time in bright compartment and a number of other relevant parameters (e.g. number of visits in the dark compartment). […]

The structures appear in SMILES notation.

T3 sequence (P11362 22-822): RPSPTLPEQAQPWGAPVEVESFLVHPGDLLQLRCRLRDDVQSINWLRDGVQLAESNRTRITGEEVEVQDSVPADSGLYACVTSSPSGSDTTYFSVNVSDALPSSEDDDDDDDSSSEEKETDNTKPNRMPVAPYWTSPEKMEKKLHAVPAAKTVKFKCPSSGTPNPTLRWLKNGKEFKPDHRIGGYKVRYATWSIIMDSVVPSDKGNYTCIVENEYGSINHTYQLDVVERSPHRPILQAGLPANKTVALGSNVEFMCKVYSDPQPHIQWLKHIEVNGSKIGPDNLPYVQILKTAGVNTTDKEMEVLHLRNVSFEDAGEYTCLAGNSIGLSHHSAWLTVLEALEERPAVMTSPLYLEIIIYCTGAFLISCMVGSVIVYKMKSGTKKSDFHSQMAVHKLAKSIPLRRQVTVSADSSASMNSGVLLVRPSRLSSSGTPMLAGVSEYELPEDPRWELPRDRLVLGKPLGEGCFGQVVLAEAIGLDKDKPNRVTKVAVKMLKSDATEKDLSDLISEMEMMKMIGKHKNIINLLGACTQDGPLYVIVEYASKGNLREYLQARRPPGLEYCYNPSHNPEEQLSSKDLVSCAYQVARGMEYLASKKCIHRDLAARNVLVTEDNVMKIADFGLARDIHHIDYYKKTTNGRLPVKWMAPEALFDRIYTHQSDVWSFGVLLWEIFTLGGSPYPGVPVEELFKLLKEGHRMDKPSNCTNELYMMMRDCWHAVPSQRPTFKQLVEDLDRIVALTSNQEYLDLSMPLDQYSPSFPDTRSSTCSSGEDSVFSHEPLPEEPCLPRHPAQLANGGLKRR
T1 sequence (P04629 33-796): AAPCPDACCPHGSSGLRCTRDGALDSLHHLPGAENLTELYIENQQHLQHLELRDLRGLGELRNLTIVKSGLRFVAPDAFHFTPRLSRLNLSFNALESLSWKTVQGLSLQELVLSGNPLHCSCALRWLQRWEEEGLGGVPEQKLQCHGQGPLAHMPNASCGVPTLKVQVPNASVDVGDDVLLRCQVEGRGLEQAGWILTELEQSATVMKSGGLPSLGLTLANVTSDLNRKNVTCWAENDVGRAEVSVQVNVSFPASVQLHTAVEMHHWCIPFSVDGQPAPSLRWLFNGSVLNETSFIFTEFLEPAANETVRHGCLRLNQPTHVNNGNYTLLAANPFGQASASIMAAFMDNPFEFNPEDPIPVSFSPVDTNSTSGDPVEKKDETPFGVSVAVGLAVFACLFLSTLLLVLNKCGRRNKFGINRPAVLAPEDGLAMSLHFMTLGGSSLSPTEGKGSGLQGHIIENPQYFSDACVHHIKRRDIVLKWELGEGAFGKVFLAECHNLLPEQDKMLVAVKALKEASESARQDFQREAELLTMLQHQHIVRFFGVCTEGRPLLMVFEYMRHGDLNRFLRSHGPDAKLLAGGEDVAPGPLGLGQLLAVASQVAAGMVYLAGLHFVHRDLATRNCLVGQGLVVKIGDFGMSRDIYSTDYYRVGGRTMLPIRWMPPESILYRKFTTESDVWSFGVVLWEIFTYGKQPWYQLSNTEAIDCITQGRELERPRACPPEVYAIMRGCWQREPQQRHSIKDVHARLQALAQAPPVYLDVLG

For `Cc1cc(-n2c(=O)[nH]c(=O)n(-c3ccccc3)c2=O)ccc1Oc1ccccc1` [Example 5, 1-(3-methyl-4-phenoxyphenyl)-3-phenyl-1,3,5-triazinane-2,4,6-trione], the EC50 at TrkA was 340 nM; on TrkB it was 390 nM; at FGFR1, 290 nM; on IGF1R it was 250 nM. For the same compound, the “retention latency within the bright area (cognitive function)” value in test [1] is “increased retention latency”.

As usually defined, the EC50 is the concentration at which the effect is half-maximal. Low readings indicate greater potency, high ones weaker potency.
